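All cell lines were grown in 96-well plates and treated with compound for 48 hours. GI50 = concentration required for 50% inhibition of growth.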 Activity calls are given as the source filed them. Cut-off read from the data, not from the text of the source: active = GI50 up to about 1.1 µM and inactive = higher.
Experiments:
Test in all cases: NCI anticancer screen, dose series, 48 h
T47D = tested on: T47D
SNB-78 = tested on: SNB-78
XF498 = tested on: XF498
KM-20L2 = tested on: KM-20L2
DLD-1 = tested on: DLD-1
HOP-18 = tested on: HOP-18
LXFL 529 = tested on: LXFL 529
DMS-114 = tested on: DMS-114
RXF 631 = tested on: RXF 631

In the case of `CN(C)c1ccc(/C=C/C(=O)c2ccc(O)cc2)cc1`, the GI50 (T47D) is reported as 13.5 µM (inactive).
With `Cc1ccc(-c2nnc(-c3ccc4ccccc4c3)o2)cc1` the GI50 (T47D) was 19.2 µM (inactive).
With `O=c1oc2ccc3ccccc3c2cc1-c1nc2ccccc2o1` the GI50 (T47D) was 3.17 µM (inactive).
With `O=C1C=CC(=NNc2ccccc2)C=CC1=O` the GI50 (T47D) was 10.2 µM (inactive).
In the case of `COc1c2c(c(OC)c3c1c(=O)c1ccccc1n3C)OCO2`, the GI50 (T47D) is reported as 6.7 µM (inactive).
In the case of `CN(N=O)c1ccc(/C=C/c2ccnc3ccccc23)cc1`, the GI50 (T47D) is reported as 50.4 µM (inactive).
For `COc1cc2c(cc1O)NC(=S)[C@@H]1CCCN1C2=O`, the GI50 (T47D) was > 100 µM (inactive).
With `O=C1Nc2ccccc2/C1=C\c1c(-c2ccccc2)nc2n1CCS2` the GI50 (T47D) was 18.7 µM (inactive).
For `CCOP(=O)(/C=C\n1ccc(=O)[nH]c1=O)OCC`, the GI50 (T47D) was > 100 µM (inactive).
For `CCOC(=O)/C(C(=O)Nc1cccc(C(F)(F)F)c1)=C(/N)N1CCCC1`, the GI50 (T47D) was 47.8 µM (inactive).
For `COc1c(-c2nc3ccc(N4CCN(C)CC4)nc3[nH]2)cc(OC)c2[nH]c(CO)nc12`, the GI50 (T47D) was 37.1 µM (inactive).
With `CC(C)C1(C)N=C(C(F)(F)F)c2cc(C(=O)C(F)(F)F)c3ccccc3c2N1` (stereo unspecified) the GI50 (T47D) was 3.13 µM (inactive).
For `C=CC1(CC/C(=C\[N+](=O)[O-])c2ccc(OC)c(OC)c2)OCC(C)(C)CO1`, the GI50 (T47D) was 14.5 µM (inactive).
In the case of `C=C1CC(Cn2ccc(=O)[nH]c2=O)(c2ccc(OC)cc2)OC1=O` (stereo unspecified), the GI50 (T47D) is reported as 16.3 µM (inactive).
For `CCCC(=O)OCOC(=O)N(C)/N=N/c1ccc(C(=O)OCC)cc1`, the GI50 (T47D) was 25.2 µM (inactive).
With `Cc1ccc(C2=C(c3ccccc3)C(=O)C(c3ccccc3)=C2c2ccc(C)cc2)cc1` the GI50 (SNB-78) was 31.6 µM (inactive), the GI50 (XF498) was 35.3 µM (inactive) and the GI50 (KM-20L2) was 45.8 µM (inactive). For the same molecule, the GI50 (DLD-1) was 41.2 µM (inactive), the GI50 (HOP-18) was > 100 µM (inactive) and the GI50 (LXFL 529) was 68.7 µM (inactive).
For `CSc1nc2nc(C(O)C(O)C(O)CO)cnc2c(=O)[nH]1` (stereo unspecified), the GI50 (SNB-78) was > 100 µM (inactive), the GI50 (DMS-114) was > 100 µM (inactive) and the GI50 (XF498) was > 100 µM (inactive). For the same molecule, the GI50 (KM-20L2) was > 100 µM (inactive), the GI50 (DLD-1) was > 100 µM (inactive) and the GI50 (LXFL 529) was > 100 µM (inactive).
In the case of `O=C(CCCN1CCC2(CC1)C(=O)NC(=O)N2c1ccccc1)c1ccc(F)cc1`, the GI50 (T47D) is reported as > 100 µM (inactive).
`CC[C@H](C)[C@H](NC(=O)[C@H](Cc1ccc(O)cc1)NCC(F)(F)F)C(=O)OC(C)(C)C` was tested, and the GI50 (T47D) was 4.51 µM (inactive).
With `CCOC(=O)Cn1c(=O)n(C)c(=O)c2c1ncn2Cc1ccccc1` the GI50 (SNB-78) was > 100 µM (inactive), the GI50 (DMS-114) was > 100 µM (inactive) and the GI50 (XF498) was 98.2 µM (inactive). For the same molecule, the GI50 (KM-20L2) was > 100 µM (inactive), the GI50 (DLD-1) was > 100 µM (inactive) and the GI50 (LXFL 529) was > 100 µM (inactive).
With `Cc1ccc2cccc3c2c1CC1(C3=O)S(=O)(=O)OCCOS1(=O)=O` the GI50 (T47D) was > 100 µM (inactive).
For `CC(Oc1ccc(OCC2CCCCC2)cc1)C(=O)NCCO` (stereo unspecified), the GI50 (SNB-78) was > 100 µM (inactive), the GI50 (DMS-114) was 39.8 µM (inactive) and the GI50 (DLD-1) was > 100 µM (inactive). The GI50 (HOP-18) was > 100 µM (inactive) and the GI50 (LXFL 529) was > 100 µM (inactive).
With `CN1CCN(c2n[nH]c(=O)c3c2nnn3C2CCCCC2)CC1` the GI50 (T47D) was > 100 µM (inactive).
With `CC(=O)C1=CSC2[C@H](NC(=O)Cc3ccccc3)C(=O)N2C1C(=O)OC(c1ccccc1)c1ccccc1` (stereo partly specified) the GI50 (SNB-78) was > 100 µM (inactive), the GI50 (DMS-114) was 84.3 µM (inactive) and the GI50 (XF498) was > 100 µM (inactive). For the same molecule, the GI50 (RXF 631) was > 100 µM (inactive), the GI50 (DLD-1) was > 100 µM (inactive) and the GI50 (LXFL 529) was > 100 µM (inactive).
`COc1ccc([C@@H]2CC(=O)N2)cc1` was tested, and the GI50 (SNB-78) was > 100 µM (inactive), the GI50 (DMS-114) was > 100 µM (inactive) and the GI50 (XF498) was > 100 µM (inactive). For the same molecule, the GI50 (KM-20L2) was > 100 µM (inactive), the GI50 (DLD-1) was > 100 µM (inactive) and the GI50 (HOP-18) was > 100 µM (inactive). The GI50 (LXFL 529) was > 100 µM (inactive).
`CC(C)=CCNc1ncnc2c1ncn2CCC(=O)OC(C)(C)C` was tested, and the GI50 (T47D) was 24.8 µM (inactive).
In the case of `CNC(=O)c1nnn(C2CCCCC2)c1S`, the GI50 (T47D) is reported as > 100 µM (inactive).
In the case of `CC(C)C(Sc1nc(-c2ccccc2)c(-c2ccccc2)[nH]1)C(=O)NN` (stereo unspecified), the GI50 (SNB-78) is reported as > 100 µM (inactive), the GI50 (DMS-114) is reported as 99.8 µM (inactive) and the GI50 (XF498) is reported as 72.8 µM (inactive). For the same molecule, the GI50 (KM-20L2) was > 100 µM (inactive), the GI50 (DLD-1) was > 100 µM (inactive) and the GI50 (LXFL 529) was > 100 µM (inactive).
`CC12CCC(/C(=N/c3cc(C(F)(F)F)cc(C(F)(F)F)c3)C1=O)C2(C)C` (stereo unspecified) was tested, and the GI50 (T47D) was 19.8 µM (inactive).
`CC[C@]1(Cc2ccc(OC)c(OC)c2)CN(S(=O)(=O)c2ccc(C)cc2)C[C@@H]1OC(C)=O` was tested, and the GI50 (T47D) was 58.5 µM (inactive).
In the case of `O=C1CCN(CCC(F)(F)C(F)(F)C(F)(F)C(F)(F)F)C(=S)N1`, the GI50 (SNB-78) is reported as > 100 µM (inactive), the GI50 (DMS-114) is reported as > 100 µM (inactive) and the GI50 (XF498) is reported as > 100 µM (inactive). The GI50 (KM-20L2) was > 100 µM (inactive) and the GI50 (LXFL 529) was > 100 µM (inactive).
With `c1ccc(/C(=N/Nc2ccccn2)c2cccnn2)cc1` the GI50 (T47D) was 9.16 µM (inactive).
With `COC(=O)c1cc(OC(C)=O)c2c(OC)ccc(OC)c2c1` the GI50 (SNB-78) was > 100 µM (inactive), the GI50 (DMS-114) was > 100 µM (inactive) and the GI50 (XF498) was > 100 µM (inactive). The GI50 (KM-20L2) was > 100 µM (inactive), the GI50 (DLD-1) was > 100 µM (inactive) and the GI50 (LXFL 529) was > 100 µM (inactive).
With `CC1(C)Oc2ccc3c(=O)cc(-c4ccccc4)oc3c2C1C(=O)O` (stereo unspecified) the GI50 (T47D) was > 100 µM (inactive).
In the case of `CC(C)=CC(=O)Cc1nc2cc(C)c(C)cc2[nH]c1=O`, the GI50 (SNB-78) is reported as > 100 µM (inactive), the GI50 (KM-20L2) is reported as > 100 µM (inactive) and the GI50 (RXF 631) is reported as > 100 µM (inactive). The GI50 (DLD-1) was > 100 µM (inactive), the GI50 (HOP-18) was > 100 µM (inactive) and the GI50 (LXFL 529) was > 100 µM (inactive).
For `O=C1N/C(=N/N=C/c2cccs2)N/C1=C\c1ccco1`, the GI50 (T47D) was > 100 µM (inactive).
With `BrC12c3ccccc3Sc3ccccc3C1(Br)c1ccccc12` (stereo unspecified) the GI50 (DMS-114) was 19.5 µM (inactive), the GI50 (KM-20L2) was 20.6 µM (inactive) and the GI50 (RXF 631) was 25.9 µM (inactive). For the same molecule, the GI50 (DLD-1) was 33 µM (inactive), the GI50 (HOP-18) was 51.5 µM (inactive) and the GI50 (LXFL 529) was 20.9 µM (inactive).

Reference: ChEMBL document CHEMBL1201862, “PubChem BioAssay data set” (2004)
